Experimental data: article PMC9851200, “Multiparameter phenotypic screening for endogenous TFEB and TFE3 translocation identifies novel chemical series modulating lysosome function” (Autophagy, 2022)
“Also recorded” adds a separate entry of the source. Like-named read-outs stand apart in the source and are kept apart here.

Assays:
[1] = target: T1, JAK1(JH2) (Homo sapiens, UniProt P23458); settings: cited from earlier work
T1 construct: JAK1(JH2)

[2] = tested on: SH-SY5Y cells; experiment: AK (adenylate kinase) release ToxiLight cytotoxicity assay; settings: for AK: PKIS2 primary screening
Procedure: Total cell lysis with 5 µL 5% Triton-X 100 (Sigma-Aldrich, T8787) is used as a positive control for the assay and toxicity is expressed as a percentage of luminescence under DMSO conditions.

[3] = target: CSNK1D (Homo sapiens, UniProt P48730); settings: cited from earlier work
[4] = target: TGFBR2 (Homo sapiens, UniProt P37173); settings: cited from earlier work
[5] = tested on: endogenous TFEB; experiment: TFEB nuclear translocation, immunocytochemistry high-content imaging; format: cell-based; settings: for TFEB %: PKIS2 primary screening; for TFEB translocation (in words): SH-SY5Y
[6] = tested on: endogenous TFE3; experiment: TFE3 nuclear translocation, immunocytochemistry high-content imaging; format: cell-based; settings: for TFE3 %: PKIS2 primary screening; for nTFE3 %: primary screen, 1 µM; for nTFE3 % / TFE3 translocation (in words) / EC50 / Best-Fit Values Span: SH-SY5Y; for Best-Fit Values Span: TFE3 assay concentration response; for Summary: activity in TFE3 assays compared with original NK-140, OT activity
[7] = target: T2, PRKD2 (Homo sapiens, UniProt Q9BZL6); settings: cited from earlier work
T2 sequence (Q9BZL6 1-878): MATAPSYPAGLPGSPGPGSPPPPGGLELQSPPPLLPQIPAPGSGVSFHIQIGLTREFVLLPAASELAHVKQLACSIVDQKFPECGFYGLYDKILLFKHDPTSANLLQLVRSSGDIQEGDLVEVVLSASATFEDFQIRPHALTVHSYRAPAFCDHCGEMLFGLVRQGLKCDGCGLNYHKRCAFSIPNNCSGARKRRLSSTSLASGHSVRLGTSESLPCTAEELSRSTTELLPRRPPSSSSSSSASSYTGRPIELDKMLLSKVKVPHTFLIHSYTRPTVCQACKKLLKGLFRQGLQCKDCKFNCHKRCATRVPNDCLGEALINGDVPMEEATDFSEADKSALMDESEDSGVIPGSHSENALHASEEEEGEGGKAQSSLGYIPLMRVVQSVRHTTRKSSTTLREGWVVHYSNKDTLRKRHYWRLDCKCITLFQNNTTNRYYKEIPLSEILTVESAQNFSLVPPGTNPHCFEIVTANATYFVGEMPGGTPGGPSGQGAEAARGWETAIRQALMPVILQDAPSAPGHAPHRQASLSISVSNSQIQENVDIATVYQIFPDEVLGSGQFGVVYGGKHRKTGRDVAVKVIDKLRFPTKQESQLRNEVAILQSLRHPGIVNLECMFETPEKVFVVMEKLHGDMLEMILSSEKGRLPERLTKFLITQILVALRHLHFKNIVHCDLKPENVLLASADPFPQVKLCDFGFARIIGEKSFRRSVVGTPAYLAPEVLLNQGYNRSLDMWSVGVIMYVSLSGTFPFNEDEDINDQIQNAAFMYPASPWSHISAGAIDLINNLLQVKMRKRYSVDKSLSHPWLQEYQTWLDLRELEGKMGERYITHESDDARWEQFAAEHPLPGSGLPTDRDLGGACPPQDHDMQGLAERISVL

[8] = target: CIT (Homo sapiens, UniProt O14578); settings: cited from earlier work
[9] = target: BMPR1B (Homo sapiens, UniProt O00238); settings: cited from earlier work
[10] = tested on: SH-SY5Y cells; settings: for DQ Intensity / DQ Spot: PKIS2 primary screening; for DQ Intensity: DQ Red BSA intensity; for DQ Spot: DQ Red BSA spot count
Source text: The PKIS2 Library was supplied by The Structural Genomics Consortium at the University of North Carolina at Chapel Hill.

[11] = target: PIKFYVE (Homo sapiens, UniProt Q9Y2I7); settings: cited from earlier work
[12] = target: T3, PRKD1 (Homo sapiens, UniProt Q15139); settings: cited from earlier work
T3 sequence (Q15139 1-912): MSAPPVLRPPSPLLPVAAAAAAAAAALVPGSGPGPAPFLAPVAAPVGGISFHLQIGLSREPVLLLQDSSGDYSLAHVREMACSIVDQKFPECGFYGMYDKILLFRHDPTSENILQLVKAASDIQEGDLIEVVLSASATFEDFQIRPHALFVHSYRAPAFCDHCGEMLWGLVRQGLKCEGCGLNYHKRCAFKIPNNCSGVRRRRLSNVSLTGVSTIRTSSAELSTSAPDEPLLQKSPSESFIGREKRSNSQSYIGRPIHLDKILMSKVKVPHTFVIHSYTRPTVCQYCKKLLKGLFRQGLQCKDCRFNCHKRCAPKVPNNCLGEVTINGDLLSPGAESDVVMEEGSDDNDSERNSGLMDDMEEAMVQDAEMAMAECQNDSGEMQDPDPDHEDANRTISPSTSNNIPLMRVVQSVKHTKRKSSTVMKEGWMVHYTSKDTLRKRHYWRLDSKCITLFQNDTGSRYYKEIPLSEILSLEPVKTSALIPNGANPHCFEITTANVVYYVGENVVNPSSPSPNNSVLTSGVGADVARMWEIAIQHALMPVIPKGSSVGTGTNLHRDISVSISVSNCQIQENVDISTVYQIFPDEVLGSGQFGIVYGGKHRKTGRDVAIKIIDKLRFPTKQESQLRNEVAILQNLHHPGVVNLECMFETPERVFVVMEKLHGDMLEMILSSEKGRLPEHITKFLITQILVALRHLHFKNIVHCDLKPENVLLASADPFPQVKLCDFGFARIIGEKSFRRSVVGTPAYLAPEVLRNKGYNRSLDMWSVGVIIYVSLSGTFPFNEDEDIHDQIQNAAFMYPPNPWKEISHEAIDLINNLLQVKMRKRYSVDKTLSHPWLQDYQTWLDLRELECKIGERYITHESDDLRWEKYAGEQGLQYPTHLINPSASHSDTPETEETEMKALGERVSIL

[13] = target: T4, ACVR1B (Homo sapiens, UniProt P36896); settings: cited from earlier work
T4 sequence (P36896 24-505): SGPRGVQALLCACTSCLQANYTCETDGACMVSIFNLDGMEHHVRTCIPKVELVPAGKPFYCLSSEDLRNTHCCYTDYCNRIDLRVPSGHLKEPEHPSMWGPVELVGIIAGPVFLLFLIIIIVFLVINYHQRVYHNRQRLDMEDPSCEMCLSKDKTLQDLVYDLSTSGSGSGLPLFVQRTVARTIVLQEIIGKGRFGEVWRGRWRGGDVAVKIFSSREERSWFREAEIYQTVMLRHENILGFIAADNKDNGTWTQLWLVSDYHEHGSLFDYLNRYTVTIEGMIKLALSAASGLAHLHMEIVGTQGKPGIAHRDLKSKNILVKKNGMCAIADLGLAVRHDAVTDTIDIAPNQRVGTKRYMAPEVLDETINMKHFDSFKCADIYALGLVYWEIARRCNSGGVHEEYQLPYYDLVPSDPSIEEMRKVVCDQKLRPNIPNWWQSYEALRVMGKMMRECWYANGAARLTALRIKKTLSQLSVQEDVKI

[14] = tested on: SH-SY5Y cells; experiment: Nuclear count from microscopy images (cellular growth and toxicity); settings: for Nuclear Count: PKIS2 primary screening

PIKFYVE, sequence (Q9Y2I7 whole entry): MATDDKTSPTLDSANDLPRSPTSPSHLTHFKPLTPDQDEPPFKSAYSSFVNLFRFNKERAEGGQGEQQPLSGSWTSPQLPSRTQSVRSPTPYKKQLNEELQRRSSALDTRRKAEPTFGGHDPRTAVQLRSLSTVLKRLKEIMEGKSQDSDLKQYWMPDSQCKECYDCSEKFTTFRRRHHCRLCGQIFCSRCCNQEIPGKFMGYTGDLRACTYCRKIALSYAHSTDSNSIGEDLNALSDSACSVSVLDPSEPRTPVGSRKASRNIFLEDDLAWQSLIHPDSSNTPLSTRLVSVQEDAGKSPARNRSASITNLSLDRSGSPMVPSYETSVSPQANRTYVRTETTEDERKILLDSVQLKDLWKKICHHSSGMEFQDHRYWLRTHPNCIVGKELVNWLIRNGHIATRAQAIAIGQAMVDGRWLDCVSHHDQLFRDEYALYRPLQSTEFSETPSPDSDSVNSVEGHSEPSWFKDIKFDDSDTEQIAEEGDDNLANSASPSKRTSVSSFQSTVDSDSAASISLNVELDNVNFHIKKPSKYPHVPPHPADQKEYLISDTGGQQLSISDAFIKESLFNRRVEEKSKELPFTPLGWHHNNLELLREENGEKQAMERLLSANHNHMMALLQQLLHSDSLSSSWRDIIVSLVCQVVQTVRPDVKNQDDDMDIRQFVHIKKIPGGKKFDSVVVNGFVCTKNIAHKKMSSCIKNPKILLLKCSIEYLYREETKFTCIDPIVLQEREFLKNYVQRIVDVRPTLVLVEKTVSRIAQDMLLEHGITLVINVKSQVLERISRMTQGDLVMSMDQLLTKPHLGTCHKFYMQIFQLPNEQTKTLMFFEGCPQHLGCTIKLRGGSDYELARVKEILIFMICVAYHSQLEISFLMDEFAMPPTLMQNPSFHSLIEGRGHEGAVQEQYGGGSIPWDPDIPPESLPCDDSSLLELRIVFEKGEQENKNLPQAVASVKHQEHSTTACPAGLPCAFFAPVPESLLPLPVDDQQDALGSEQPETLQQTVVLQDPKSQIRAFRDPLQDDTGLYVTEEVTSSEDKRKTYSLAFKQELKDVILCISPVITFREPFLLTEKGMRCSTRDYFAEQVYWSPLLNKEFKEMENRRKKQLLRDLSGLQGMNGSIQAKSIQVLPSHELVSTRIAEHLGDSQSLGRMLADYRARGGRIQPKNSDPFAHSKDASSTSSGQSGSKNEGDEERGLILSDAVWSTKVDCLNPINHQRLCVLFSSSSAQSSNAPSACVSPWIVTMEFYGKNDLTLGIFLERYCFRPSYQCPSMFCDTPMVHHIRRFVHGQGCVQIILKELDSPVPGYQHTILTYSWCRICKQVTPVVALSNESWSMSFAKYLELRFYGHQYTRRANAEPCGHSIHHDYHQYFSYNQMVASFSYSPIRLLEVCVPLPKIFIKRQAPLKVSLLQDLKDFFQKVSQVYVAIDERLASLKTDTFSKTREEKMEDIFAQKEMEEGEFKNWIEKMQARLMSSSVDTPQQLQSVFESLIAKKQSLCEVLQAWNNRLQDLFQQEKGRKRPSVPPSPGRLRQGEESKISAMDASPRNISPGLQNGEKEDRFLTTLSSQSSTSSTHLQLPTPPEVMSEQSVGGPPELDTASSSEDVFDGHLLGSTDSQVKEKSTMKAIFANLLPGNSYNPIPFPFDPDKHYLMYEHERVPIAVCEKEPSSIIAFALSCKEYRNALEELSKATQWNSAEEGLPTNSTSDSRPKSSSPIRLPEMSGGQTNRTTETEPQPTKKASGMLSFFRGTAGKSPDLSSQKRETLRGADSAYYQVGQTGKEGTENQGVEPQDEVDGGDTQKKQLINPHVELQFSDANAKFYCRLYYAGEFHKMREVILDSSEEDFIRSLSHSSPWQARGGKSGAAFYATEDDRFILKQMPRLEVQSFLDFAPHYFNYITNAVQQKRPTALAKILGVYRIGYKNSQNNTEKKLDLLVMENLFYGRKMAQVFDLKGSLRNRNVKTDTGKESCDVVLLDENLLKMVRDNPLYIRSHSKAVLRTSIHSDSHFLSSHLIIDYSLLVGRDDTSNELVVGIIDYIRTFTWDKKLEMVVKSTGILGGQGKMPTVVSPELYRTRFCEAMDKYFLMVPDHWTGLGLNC
CSNK1D, sequence (P48730 whole entry): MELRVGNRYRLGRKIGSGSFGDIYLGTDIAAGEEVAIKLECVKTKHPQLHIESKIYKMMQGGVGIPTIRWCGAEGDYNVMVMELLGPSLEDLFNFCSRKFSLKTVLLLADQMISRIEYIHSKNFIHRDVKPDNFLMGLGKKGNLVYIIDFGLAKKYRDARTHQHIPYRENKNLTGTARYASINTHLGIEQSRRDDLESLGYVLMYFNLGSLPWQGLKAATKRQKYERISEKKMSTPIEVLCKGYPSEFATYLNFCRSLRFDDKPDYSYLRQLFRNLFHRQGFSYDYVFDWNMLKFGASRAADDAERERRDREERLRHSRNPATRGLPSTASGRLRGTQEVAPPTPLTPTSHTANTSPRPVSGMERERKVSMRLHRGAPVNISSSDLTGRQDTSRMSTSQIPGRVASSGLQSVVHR
CIT, sequence (O14578 whole entry): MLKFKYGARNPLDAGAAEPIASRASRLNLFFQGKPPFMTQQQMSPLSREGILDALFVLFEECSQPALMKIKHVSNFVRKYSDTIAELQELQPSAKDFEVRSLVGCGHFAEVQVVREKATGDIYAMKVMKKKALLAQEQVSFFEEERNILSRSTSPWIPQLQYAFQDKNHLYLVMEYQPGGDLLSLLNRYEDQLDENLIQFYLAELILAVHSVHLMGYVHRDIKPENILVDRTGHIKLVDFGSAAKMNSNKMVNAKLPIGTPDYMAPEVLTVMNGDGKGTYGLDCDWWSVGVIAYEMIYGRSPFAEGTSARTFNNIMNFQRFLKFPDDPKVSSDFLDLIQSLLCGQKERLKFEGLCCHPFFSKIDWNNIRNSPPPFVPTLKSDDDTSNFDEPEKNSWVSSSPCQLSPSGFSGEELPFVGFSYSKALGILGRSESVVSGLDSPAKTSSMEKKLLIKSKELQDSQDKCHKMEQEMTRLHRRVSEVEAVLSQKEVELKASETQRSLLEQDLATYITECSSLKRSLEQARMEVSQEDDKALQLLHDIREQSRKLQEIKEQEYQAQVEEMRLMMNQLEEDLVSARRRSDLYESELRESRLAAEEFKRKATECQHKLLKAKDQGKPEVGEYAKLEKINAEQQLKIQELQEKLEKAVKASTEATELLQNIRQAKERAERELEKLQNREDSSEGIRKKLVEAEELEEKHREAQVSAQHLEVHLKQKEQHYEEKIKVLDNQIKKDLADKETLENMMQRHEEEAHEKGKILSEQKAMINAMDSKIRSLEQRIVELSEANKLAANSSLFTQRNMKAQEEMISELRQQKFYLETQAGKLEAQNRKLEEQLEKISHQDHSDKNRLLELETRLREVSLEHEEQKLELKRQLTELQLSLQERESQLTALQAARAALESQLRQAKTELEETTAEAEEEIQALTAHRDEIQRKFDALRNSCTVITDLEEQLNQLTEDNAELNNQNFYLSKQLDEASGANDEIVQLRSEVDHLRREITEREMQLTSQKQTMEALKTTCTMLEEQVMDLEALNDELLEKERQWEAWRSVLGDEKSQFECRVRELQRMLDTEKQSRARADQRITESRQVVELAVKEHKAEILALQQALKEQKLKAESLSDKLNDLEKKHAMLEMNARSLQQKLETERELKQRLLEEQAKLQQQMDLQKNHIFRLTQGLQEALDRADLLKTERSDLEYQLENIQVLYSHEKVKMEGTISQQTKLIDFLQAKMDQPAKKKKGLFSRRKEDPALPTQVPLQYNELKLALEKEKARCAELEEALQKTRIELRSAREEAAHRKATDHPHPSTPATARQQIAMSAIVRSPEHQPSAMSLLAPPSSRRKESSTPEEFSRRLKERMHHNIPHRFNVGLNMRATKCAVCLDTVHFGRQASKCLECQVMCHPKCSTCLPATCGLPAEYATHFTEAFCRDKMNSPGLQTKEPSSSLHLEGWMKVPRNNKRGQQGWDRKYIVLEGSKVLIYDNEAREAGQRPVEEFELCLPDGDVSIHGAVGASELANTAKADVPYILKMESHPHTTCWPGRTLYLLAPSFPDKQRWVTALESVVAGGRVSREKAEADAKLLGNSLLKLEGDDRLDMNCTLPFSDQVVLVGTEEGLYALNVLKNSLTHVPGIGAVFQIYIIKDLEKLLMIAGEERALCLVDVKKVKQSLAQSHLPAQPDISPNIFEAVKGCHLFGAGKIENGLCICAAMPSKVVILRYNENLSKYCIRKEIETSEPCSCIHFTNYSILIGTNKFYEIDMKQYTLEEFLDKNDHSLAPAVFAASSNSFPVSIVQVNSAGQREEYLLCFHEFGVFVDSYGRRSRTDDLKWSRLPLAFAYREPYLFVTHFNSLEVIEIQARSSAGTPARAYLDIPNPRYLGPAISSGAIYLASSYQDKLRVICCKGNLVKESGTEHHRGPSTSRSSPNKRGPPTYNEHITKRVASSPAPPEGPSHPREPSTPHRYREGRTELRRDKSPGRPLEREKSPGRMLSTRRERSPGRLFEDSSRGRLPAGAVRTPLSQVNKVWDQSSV
T1 sequence (P23458 583-855 limits assumed): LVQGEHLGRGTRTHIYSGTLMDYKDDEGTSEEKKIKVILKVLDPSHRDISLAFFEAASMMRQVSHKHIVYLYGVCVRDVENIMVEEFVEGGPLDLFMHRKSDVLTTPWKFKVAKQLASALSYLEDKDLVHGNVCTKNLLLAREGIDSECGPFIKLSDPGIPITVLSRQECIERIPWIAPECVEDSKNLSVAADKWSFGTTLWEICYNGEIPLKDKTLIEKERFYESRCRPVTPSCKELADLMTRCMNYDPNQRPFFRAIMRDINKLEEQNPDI

SMILES	KINOMEscan binding JAK1(JH2) [1]	AK [2]	KINOMEscan binding CSNK1D [3]	KINOMEscan binding TGFBR2 [4]	TFEB % [5]	TFE3 % [6]	nTFE3 % ([6]; 24 h)	KINOMEscan binding PRKD2 [7]	KINOMEscan binding CIT [8]	KINOMEscan binding BMPR1B [9]	DQ Intensity [10]	DQ Spot [10]	KINOMEscan binding PIKFYVE [11]	KINOMEscan binding PRKD1 [12]	KINOMEscan binding ACVR1B [13]	Nuclear Count [14]	Summary [6]	other results
Cc1cccc(-c2cc(Nc3ccncc3)c3ccccc3n2)n1 [GSK223675]	5%	117.83	14%	0%	7.90%	9.28%	9.2%	96%	23%	0%	136.99	120.77	23%	91.1%	88%	85.07	–	–
COc1ccc2nc(-c3cccc(C)n3)nc(Nc3ccncc3)c2c1 [GSK204919]	80%	106.43	49%	10%	4.22%	7.07%	7%	98.8%	73%	0%	144.99	139.38	81%	92.4%	–	98.76	–	TFEB translocation (in words) ([5]; 24 h treatment): did not show TFEB and TFE3 activation; TFE3 translocation (in words) ([6]; 24 h treatment): did not show TFEB and TFE3 activation
Cc1cccc(-c2nc(Nc3ccc4ncsc4c3)c3ccccc3n2)n1 [NK140]	–	–	–	–	–	–	–	–	–	–	–	–	–	–	–	–	Original	AK signal (in words) ([2]; SH-SY5Y, 24 h treatment): reduced; Cellular toxicity (AK release and nuclear count, in words) ([2]; SH-SY5Y, 24 h treatment): no increases in DQ Red BSA intensity or cellular toxicity; AK release (in words) ([2]; SH-SY5Y, 48 h treatment): without increases in AK; TFEB translocation (in words) ([5]; 24 h treatment): modest TFEB and TFE3 translocation; TFEB translocation (in words) ([5]; 48 h treatment): induced; also recorded: elevated TFEB and TFE3 translocation; EC50 ([6]; Homo sapiens, 24 h treatment, estimated, read-out: Cellular EC50 against TFE3): 0.65 µM; EC50 ([6]; Homo sapiens, TFE3 assay, 24 h, µM, read-out: Best-Fit Values EC50 (converted)): 0.64 µM; TFE3 translocation (in words) ([6]; 24 h treatment): modest TFEB and TFE3 translocation; TFE3 translocation (in words) ([6]; 48 h treatment): induced; also recorded: elevated TFEB and TFE3 translocation; Best-Fit Values Span ([6]; 24 h): 37.55; DQ Red BSA fluorescence intensity (in words) ([10]; SH-SY5Y, 24 h treatment): no increases in DQ Red BSA intensity; DQ Red BSA intensity (in words) ([10]; SH-SY5Y, 48 h treatment): additional increase in DQ Red BSA intensity; Nuclear count (in words) ([14]; SH-SY5Y, 48 h treatment): small reduction in nuclear count from 0.75 µM
Cc1ccc(-c2nc(Nc3ccncc3)c3ccccc3n2)s1 [GSK189015]	38%	70.77	33%	21%	4.14%	15.06%	15%	14%	42%	0%	116.90	105.30	63%	18%	0%	75.74	–	–
Cc1cccc(-c2nc(Nc3ccc4ncsc4c3)c3ccccc3n2)n1 [GW867588]	62%	60.47	0%	0%	27.23%	18.78%	18.7%	99.8%	13%	0%	95.27	103.18	54%	98.7%	35%	62.46	–	–
Cc1cccc(-c2nc(Nc3ccncc3)c3ccccc3n2)n1 [GW855857]	74%	89.05	73%	95.7%	6.50%	15.51%	15.5%	99%	91.1%	29%	79.80	95.73	57%	86%	94.3%	124.29	–	–
Cc1cccc(-c2nc(Nc3ccc4nn(C)cc4c3)c3ccccc3n2)n1 [NK167]	–	–	–	–	–	–	–	–	–	–	–	–	–	–	–	–	Weaker, Strong OT activity	EC50 ([6]; TFE3 assay, 24 h, second EC50 of biphasic/bell-shaped fit or OT (off-target) activity, unit inferred, read-out: Best-Fit Values EC50 (converted)): 1.05 µM; EC50 ([6]; TFE3 assay, 24 h, µM, read-out: Best-Fit Values EC50 (converted)): 1.04 µM
Cc1cccc(-c2nc(Nc3ccncc3)c3ccccc3n2)n1 [NK215]	–	–	–	–	–	–	–	–	–	–	–	–	–	–	–	–	Weaker	KINOMEscan JAK1(JH2domain-pseudokinase) ([1]; JAK1(JH2domain-pseudokinase), Published KINOMEscan, ref original PKIS2 published data): 74; KINOMEscan CSNK1D ([3]; CSNK1D, Published KINOMEscan, ref original PKIS2 published data): 73; KINOMEscan TGFBR2 ([4]; TGFBR2, Published KINOMEscan, ref original PKIS2 published data): 95.7; EC50 ([6]; Homo sapiens, 24 h, read-out: Best-Fit Values EC50): 2.04 µM; Best-Fit Values Span ([6]; 24 h): 18.17; KINOMEscan PRKD2 ([7]; PRKD2, Published KINOMEscan, ref original PKIS2 published data): 99; KINOMEscan CIT ([8]; CIT, Published KINOMEscan, ref original PKIS2 published data): 91.1; KINOMEscan BMPR1B ([9]; BMPR1B, Published KINOMEscan, ref original PKIS2 published data): 29; KINOMEscan PIKFYVE ([11]; kinase PIKFYVE, Published KINOMEscan, ref original PKIS2 published data): 57; KINOMEscan PRKD1 ([12]; PRKD1, Published KINOMEscan, ref original PKIS2 published data): 86; KINOMEscan ACVR1B [13]: 94.3
